Measurements: patent US8476309B2, “Benzofuran cannabinoid compounds and related methods of use” (The University of Tennessee Research Foundation, priority 2009, dated 2013)

What follows are compounds tested on glioblastoma brain cancer cell line LN-229 (assay: Cytotoxicity assay (CCK8 viability)). Details: Homo sapiens, LN-229, 24 h, read-out: EC50 LN-229, 24 hrs, 1% FBS.
Format: cell-based
Method: Cytoxocity assay: Cells are seeded on a 96 well polystyrene plate in full serum media at a density of 75,000 cells per milliliter, 100 μL per well. Plates are incubated at 37° C. and 5% CO2 for 24 hours to allow cell attachment. Drug solutions are prepared in DMSO at 100× concentration and mixed 1:100 in 1% FBS media to yield the desired concentration. Drug-media mixtures are vortexed immediately prior to administration to cells. […] 10 μL of Cell Counting Kit 8 (CCK8, Dojindo# CK04-11) is added to each well to colormetrically assess viability. After 2-4 hours of incubation with the CCK8 dye, absorbance is read at 450 nm by a BioTek Synergy 2 plate reader.
The cytotoxicity of selected compounds against the glioblastoma brain cancer cell line LN-229 is depicted in Table 2.

CCCCCc1cc(O)c2c(-c3cc(Cl)cc(Cl)c3)coc2c1 [Compound 58, 3-(3,5-Dichlorophenyl)-6-pentylbenzofuran-4-ol] and CCCCCc1cc(O)c2c(-c3cc(OC)cc(OC)c3)coc2c1 [Compound 55, 3-(3,5-Dimethoxyphenyl)-6-pentylbenzofuran-4-ol] are within 1.5-fold of each other in EC50: 13.6 µM for the first, 10.3 µM for the second.

Compound CCCCCc1cc(O)c2c(-c3cccc(C)c3)coc2c1 [Compound 51, 6-Pentyl-3-m-tolylbenzofuran-4-ol] has an EC50 of 16.4 µM.

Same assay, conditions: Homo sapiens; LN-229 cells, 24 hrs, 1% FBS media, CCK8 readout; read-out: EC50 LN-229, 24 hrs, 1% FBS

Compared with CCCCCc1cc(O)c2cc(-c3cc(Cl)cc(Cl)c3)oc2c1 [Compound 59, 2-(3,5-Dichlorophenyl)-6-pentylbenzofuran-4-ol], CCCCCc1cc(O)c2cc(-c3cc(OC)cc(OC)c3)oc2c1 [Compound 56, 2-(3,5-Dimethoxyphenyl)-6-pentylbenzofuran-4-ol] is 1.7-fold higher in EC50: 6.12 µM for the first, 10.3 µM for the second.

CCCCCCC(C)(C)c1cc(O)c2c(-c3cc(Cl)cc(Cl)c3)coc2c1 [Compound 62, 3-(3,5-Dichlorophenyl)-6-(2-methyloctan-2-yl)benzofuran-4-ol] and CCCCCCC(C)(C)c1cc(O)c2c(-c3ccccc3)coc2c1 [Compound 63, 6-(2-Methyloctan-2-yl)-3-phenylbenzofuran-4-ol] are within 1.5-fold of each other in EC50: 11.4 µM for the first, 10.3 µM for the second.

First: CCCCCc1cc(O)c2c(-c3ccccc3)coc2c1 [Compound 52, 6-Pentyl-3-phenylbenzofuran-4-ol]
Second: CCCCCc1cc(O)c2c(-c3cccs3)coc2c1 [Compound 49, 6-Pentyl-3-thiophen-2-yl-benzofuran-4-ol]
The EC50 of the first is 6.4-fold lower: 10.7 µM for the first, 68.5 µM for the second. The first is the more potent here.

CC(C)(c1cccc(F)c1)c1cc(O)c2c(-c3ccccc3)coc2c1 [Compound 75, 6-(2-(3-Fluorophenyl)propan-2-yl)-3-phenylbenzofuran-4-ol] and CCCCCc1cc(O)c2cc(-c3cccs3)oc2c1 [Compound 50, 6-Pentyl-2-thiophen-2-yl-benzofuran-4-ol] are within 1.5-fold of each other in EC50: 6.99 µM for the first, 10.1 µM for the second.
